Test results from patent EP0535528A1, “Antibacterial 5-Nitro-1-methyl-imidazolyl-3-terbutyl-2-hydroxy-aryl-carbinols” (EURORESEARCH S.r.L., priority 1991, dated 1993).
≈ marks a conversion by molar mass, not a printed value.

Assays:
Swiss female albino mice = assay: Oral and intraperitoneal acute toxicity in mice (LD50, Probits method); format: in vivo; settings: mice
Procedure: 20 Swiss female albino mice are used for this test of the average weight of 20 g (±2), coming from Nossan breeding .
Cages: in Makrolon® with saw dust litter, Number of animals per cage: 5 Acclimation period: 1 week Temperature: 22°C (± 2°C) Humidity : 60%, Diet: pellets for mice produced by Nossan firm, Water ad libitum Fast before the treatment: 16 hours
Oral by gastric route and intraperitoneal.
The substances to be studied: EU11100, EU11102, EU11103, EU11104 are treated with 0.5% carboxymethylcellulose in spring water, for the oral administration, whereas the same substances are intraperitoneally administered in the form of a physiological solution .
For each of the above mentioned substances, a mother suspension is prepared having a concentration in the active ingredient of 250 mg/ml for the oral administration, and analogously a mother suspension is prepared for the intraperitoneal administration having a concentration of the desired active principle of 100 mg/ml.
The following doses are used • a) oral route: 5000 mg/kg • b) intraperitoneal route : 2000 mg/kg
If mortality is observed at the above mentioned doses, other doses are administered in order to obtain a dose-response curve.
5 animals are used for every utilized concentration.
After the administration of the above substances the animals are kept under observation for 14 days , during which the mortality and the behaviour is observed.
LD₅₀ is determined on the base of the cumulative mortality observed in the successive 14 days after the administration by using the Probits method.

Helicobapter pylori [1] = assay: Inhibition halos of the bacterial growth (impregnated disks on agar); format: cell-based; settings: for activity against the Helicobapter pylori strains used: 10 strains; for Inhibition halo (mm), Average: average of 10 strains
Procedure: Comparison substance: Metronidazole Solubilization of the substances : All the substances to be studied are dissolved at room temperature in DMSO.
Some commercially available antibiogram disks are so impregnated with the above mentioned compounds that each disk has concentration equal to 10, 1, 0.1, 0.01 µg.
10 strains of Helicobapter pylori are used of recent clinical isolation.
Columbia Blood Agar Base is used, containing 5% of defibrinated horse blood, 2 % of calf serum, 2 vials of Vitox per liter of medium and Vancomicine (10 µg/ml) Trimetoprim lactate(5 µg/ml) and Polimixin B (2.5 U/ml).
0.1 ml of a suspension of the different used strains are uniformly distributed onto Petri plates, containing 20 ml of Columbia Blood Agar base, obtained by taking a sample, by means of a platinum loop, of different colonies from a 48 hours culture, grown in anaerobiosis jars with "Gas Pack", without a catalyst and diluted into a physiological solution.
4 disks per plate, previously impregnated with the substances under examination, are then placed onto the agar layer of each plate.
After 48 hours of anaerobiosis incubation, as above described, the inhibition halos of the bacterial growth, produced by the different activity of the substances inside the agar, are evaluated.

Helicobapter pylori [2] = assay: Minimal inhibiting concentration (agar dilution); format: cell-based
Procedure: Substances under examination: EU11100, EU11102, EU11103, EU11104. Comparison substance: Metronidazole Solubilization of the substances: All the substances to be studied are dissolved at room temperature in DMSO. […] 10 strains of Helicobapter pylori are used of recent clinical isolation […] The sowing of the bacteria, prepared as described in the preceding test is carried out by means a "multi-point inoculator". After 48 hours incubation under the condition described in the preceding test, the plates are examined and the Minimal Inhibiting Concentration is evaluated, namely that dose corresponding to growth absence.

## Cn1c([N+](=O)[O-])cnc1C(O)c1cc(C(C)(C)C)cc(C(C)(C)C)c1O (stereo not shown) [EU11102, 5-nitro-1-methyl-imidazolyl-3,5-diterbutyl-2-hydroxy-phenyl-carbinol]
Swiss female albino mice; intraperitoneal, 2000 mg/kg
  toxicity when intraperitoneally administered: not toxic
Swiss female albino mice; oral, 5000 mg/kg
  toxicity when orally administered: not toxic
Helicobapter pylori [1]; 1 µg/disk
  activity against the Helicobapter pylori strains used: active against all the Helicobapter pylori used
  Inhibition halo (mm), Average: 15.1 mm
Helicobapter pylori [1]; disk test
  activity against the Helicobapter pylori strains used: active against all the Helicobapter pylori strains used
Helicobapter pylori [1]; 10 µg/disk
  Inhibition halo (mm), Average: 22.9 mm
Helicobapter pylori [1]; strain 1, 0.01 µg/disk
  Inhibition halo (mm) at the concentration (µg/disk): 0 mm
Helicobapter pylori [1]; strain 1, 0.1 µg/disk
  Inhibition halo (mm) at the concentration (µg/disk): 0 mm
Helicobapter pylori [1]; strain 1, 1 µg/disk
  Inhibition halo (mm) at the concentration (µg/disk): 15 mm
Helicobapter pylori [1]; strain 1, 10 µg/disk
  Inhibition halo (mm) at the concentration (µg/disk): 23 mm
Helicobapter pylori [1]; strain 2, 0.01 µg/disk
  Inhibition halo (mm) at the concentration (µg/disk): 0 mm
Helicobapter pylori [1]; strain 2, 0.1 µg/disk
  Inhibition halo (mm) at the concentration (µg/disk): 0 mm
Helicobapter pylori [1]; strain 2, 10 µg/disk
  Inhibition halo (mm) at the concentration (µg/disk): 22 mm
Helicobapter pylori [1]; strain 3, 0.01 µg/disk
  Inhibition halo (mm) at the concentration (µg/disk): 0 mm
Helicobapter pylori [1]; strain 3, 0.1 µg/disk
  Inhibition halo (mm) at the concentration (µg/disk): 0 mm
Helicobapter pylori [1]; strain 3, 1 µg/disk
  Inhibition halo (mm) at the concentration (µg/disk): 12 mm
Helicobapter pylori [1]; strain 3, 10 µg/disk
  Inhibition halo (mm) at the concentration (µg/disk): 22 mm
Helicobapter pylori [1]; strain 4, 0.01 µg/disk
  Inhibition halo (mm) at the concentration (µg/disk): 0 mm
Helicobapter pylori [1]; strain 4, 0.1 µg/disk
  Inhibition halo (mm) at the concentration (µg/disk): 0 mm
Helicobapter pylori [1]; strain 4, 1 µg/disk
  Inhibition halo (mm) at the concentration (µg/disk): 16 mm
Helicobapter pylori [1]; strain 4, 10 µg/disk
  Inhibition halo (mm) at the concentration (µg/disk): 24 mm
Helicobapter pylori [1]; strain 5, 0.01 µg/disk
  Inhibition halo (mm) at the concentration (µg/disk): 0 mm
Helicobapter pylori [1]; strain 5, 0.1 µg/disk
  Inhibition halo (mm) at the concentration (µg/disk): 0 mm
Helicobapter pylori [1]; strain 5, 1 µg/disk
  Inhibition halo (mm) at the concentration (µg/disk): 16 mm
Helicobapter pylori [1]; strain 5, 10 µg/disk
  Inhibition halo (mm) at the concentration (µg/disk): 22 mm
Helicobapter pylori [1]; strain 6, 0.01 µg/disk
  Inhibition halo (mm) at the concentration (µg/disk): 0 mm
Helicobapter pylori [1]; strain 6, 0.1 µg/disk
  Inhibition halo (mm) at the concentration (µg/disk): 0 mm
Helicobapter pylori [1]; strain 6, 1 µg/disk
  Inhibition halo (mm) at the concentration (µg/disk): 17 mm
Helicobapter pylori [1]; strain 6, 10 µg/disk
  Inhibition halo (mm) at the concentration (µg/disk): 25 mm
Helicobapter pylori [1]; strain 7, 0.01 µg/disk
  Inhibition halo (mm) at the concentration (µg/disk): 0 mm
Helicobapter pylori [1]; strain 7, 0.1 µg/disk
  Inhibition halo (mm) at the concentration (µg/disk): 0 mm
Helicobapter pylori [1]; strain 7, 1 µg/disk
  Inhibition halo (mm) at the concentration (µg/disk): 14 mm
Helicobapter pylori [1]; strain 7, 10 µg/disk
  Inhibition halo (mm) at the concentration (µg/disk): 21 mm
Helicobapter pylori [1]; strain 8, 0.01 µg/disk
  Inhibition halo (mm) at the concentration (µg/disk): 0 mm
Helicobapter pylori [1]; strain 8, 0.1 µg/disk
  Inhibition halo (mm) at the concentration (µg/disk): 0 mm
Helicobapter pylori [1]; strain 8, 1 µg/disk
  Inhibition halo (mm) at the concentration (µg/disk): 15 mm
Helicobapter pylori [1]; strain 8, 10 µg/disk
  Inhibition halo (mm) at the concentration (µg/disk): 23 mm
Helicobapter pylori [1]; strain 9, 0.01 µg/disk
  Inhibition halo (mm) at the concentration (µg/disk): 0 mm
Helicobapter pylori [1]; strain 9, 0.1 µg/disk
  Inhibition halo (mm) at the concentration (µg/disk): 0 mm
Helicobapter pylori [1]; strain 9, 1 µg/disk
  Inhibition halo (mm) at the concentration (µg/disk): 16 mm
Helicobapter pylori [1]; strain 9, 10 µg/disk
  Inhibition halo (mm) at the concentration (µg/disk): 24 mm
Helicobapter pylori [1]; strain 10, 0.01 µg/disk
  Inhibition halo (mm) at the concentration (µg/disk): 0 mm
Helicobapter pylori [1]; strain 10, 0.1 µg/disk
  Inhibition halo (mm) at the concentration (µg/disk): 0 mm
Helicobapter pylori [1]; strain 10, 1 µg/disk
  Inhibition halo (mm) at the concentration (µg/disk): 15 mm
Helicobapter pylori [1]; strain 10, 10 µg/disk
  Inhibition halo (mm) at the concentration (µg/disk): 23 mm
Helicobapter pylori [2]; 10 strains
  MIC50: 0.25 mg/L (≈ 0.692 µM)
  MIC90: 0.5 mg/L (≈ 1.38 µM)
  MIC range: 0.25 to 0.5 mg/L
Helicobapter pylori [2]; strain 1
  MIC: 0.5 mg/L (≈ 1.38 µM)
Helicobapter pylori [2]; strain 2
  MIC: 0.25 mg/L (≈ 0.692 µM)
Helicobapter pylori [2]; strain 3
  MIC: 0.25 mg/L (≈ 0.692 µM)
Helicobapter pylori [2]; strain 4
  MIC: 0.5 mg/L (≈ 1.38 µM)
Helicobapter pylori [2]; strain 5
  MIC: 0.25 mg/L (≈ 0.692 µM)
Helicobapter pylori [2]; strain 6
  MIC: 0.5 mg/L (≈ 1.38 µM)
Helicobapter pylori [2]; strain 7
  MIC: 0.25 mg/L (≈ 0.692 µM)
Helicobapter pylori [2]; strain 8
  MIC: 0.25 mg/L (≈ 0.692 µM)
Helicobapter pylori [2]; strain 9
  MIC: 0.25 mg/L (≈ 0.692 µM)
Helicobapter pylori [2]; strain 10
  MIC: 0.25 mg/L (≈ 0.692 µM)
